Test [1] deals with replicative senescent vascular endothelial cells (HUVEC). The test is described as follows: CCK-8 cell survival, replicative senescent HUVEC. The format is cell-based, human. Particulars: according to concentration of salinomycin; FIG. 4C. The method, then:
After dispensing 2×10^5 cells in a 100 mm culture dish, they were cultured in a 37° C., 5% CO2 incubator. When the cells grew to 80-90% in the culture dish, the cells were removed by treatment with trypsin-EDTA, and the number of cells was measured, and the cell population doubling time (PDT) was measured.
By successively subculturing the cells in the same process as described above, replication aging was induced. PDT of young fibroblasts was 36 hours, PDT of replicative senescent fibroblasts was 12 days, PDT of young vascular endothelial cells was 24 hours, and PDT of replicative senescent vascular endothelial cells was 7 days.
After each sample was dissolved in DMSO, young cells, replicative senescent cells and senescent cells in which premature aging was induced by treating with doxorubicin were treated with 100 nM salinomycin, 100 nM rapamycin, 100 nM ABT263. […]
Young cells (1×10^3 cells/well) or senescent cells (2×10^3 cells/well) were dispensed into a 96-well plate, and cultured overnight in a 37° C., 5% CO2 incubator. […] Then, the absorbance was measured at 450 nm using a Microplate reader.
The degree of cell survival was expressed as a relative value for the absorbance of the control group treated with only DMSO as 100%.

In test [2] the test system is renal fibrosis induced by renal ischemia-reperfusion injury. Format: in vivo, C57BL/6J mice. The note with it: compared to PBS group. The method, then: Animal experiments were performed with the approval of the Animal Experimental Ethics Committee, Yeungnam University College of Medicine (YUMC-AEC2018-024). C57BL/6J 8-week-old male mice were anesthetized by intraperitoneal injection of 2.5% Avertin (0.025 ml/g body weight). The mouse was placed on a hot plate at 37° C., and the left flank was incised to expose the left kidney. The renal arteriovenous blood vessels were ligated with a microaneurism clamp (Roboz), and whether the blood vessels were blocked or not was confirmed by the color of the kidneys. During the induction of ischemia, the body temperature of the mice was maintained at 36.5-37.5° C. After 35 minutes, the clamp was removed and it was confirmed that reperfusion occurred.
As a control, renal arteriovenous vessels were not ligated, and the rest was performed in the same manner as above. From 4 days after ischemia-reperfusion injury, 2.5 μl of 10 mM salinomycin was diluted in 100 μl of phosphate buffer solution at intervals of 2 days and injected into the abdominal cavity 3 times (Sal group). […] Three mice were used for each group.
The left kidney in which ischemia-reperfusion injury was induced, was excised in half and fixed in 10% formalin solution or stored frozen in liquid nitrogen.
In order to evaluate kidney function due to ischemia-reperfusion injury, creatinine and blood urea nitrogen (BUN) concentrations in plasma and urine were measured.
Blood was collected from the retro-orbital vascular plexus of the mouse using a heparin capillary tube, and plasma was separated. Plasma creatinine was measured by QuantiChrom™ creatinine assay kit (DICT-500; BioAssay Systems, Hayward, CA, USA), and BUN was investigated by measuring absorbance at 490 nm and 450 nm by a spectrophotometer, respectively by BUN colorimetric detection kit (Arbor Assays, Ann Arbor, Michigan, USA). […]
RIPA buffer was added to the tissue and pulverized with WiseTis homogenizer HG-15D (DAIHAN Scientific, Seoul, South Korea). Centrifugation was performed at 12,000 rpm at 4° C. for 20 minutes, and the supernatant was transferred to a new tube. The protein concentration of the supernatant was quantified by the BCA method.
After electrophoresis (SDS-PAGE) of 30 μg of protein, Western blot analysis was performed. After electrophoresis, the protein was transferred from the gel to a polyvinylidene fluoride membrane (Pall Corporation). The membrane was treated with a 5% Difco™ skim milk solution (Becton, Dickinson and Company, USA) for 2 hours at room temperature, and the primary antibody was added, followed by reaction at room temperature for 2 hours.
As the primary antibody, anti-p53 antibody, anti-p16 antibody, anti-actin antibody and anti-GAPDH antibody were purchased from Santa Cruz Biotechnology, Inc. Anti-phosphorylated-Rb antibody was obtained from New England Biolabs (Ipswich, MA, USA), and the anti-SOD2 antibody and anti-catalase antibody were obtained from Bioworld Technology Inc. (Louis Park, MN, USA), anti-HNE antibody, anti-α-smooth muscle actin antibody, and anti-type I collagen antibody were purchased from Abcam (Cambridge, UK).
The tissue fixed in 10% formalin solution was embedded with paraffin and cut into 4 μm to prepare a tissue sample. After removing paraffin from the tissue sample, hematoxylin-eosin staining, trichrome staining, and PAS staining were performed.
The degree of fibrosis was measured by analyzing the degree of collagen staining using the i-Solution™ software program (IMT Inc., Canada) after trichrome staining and the degree of cell senescence in tissue samples was investigated by staining lipofuscin with Sudan black B (Viegas M S, et al., European journal of histochemistry: EJH. 2007). The degree of peritoneal fibrosis was confirmed by measuring the submesothelial thickness of the peritoneal mesothelial cell layer using the NIH Image J program. […]

[3] abbreviates: kidney tissue, antioxidant enzyme.
The mark [4] stands for this setting: kidney tissue, fibrosis marker, FIG. 7L, 7M.

Regarding `CC[C@@H](C(=O)[C@@H](C)[C@@H](O)[C@H](C)[C@@H]1O[C@@H]([C@@H](CC)C(=O)O)CC[C@@H]1C)[C@H]1O[C@]2(C=C[C@@H](O)[C@]3(CC[C@@](C)([C@H]4CC[C@](O)(CC)[C@H](C)O4)O3)O2)[C@H](C)C[C@@H]1C` [salinomycin], in test [1], the “cell survival (CCK-8)” value was “did not affect”. The plasma creatinine result in test [2] (i.p. 3 times at 2-day intervals from day 4, FIG. 7C) is reported as “decreased”. Also, the “plasma BUN” value in test [2] (i.p. 3 times at 2-day intervals from day 4, FIG. 7D) was “decreased”. In test [2] (setting [3]), the “expression of SOD2 (Western blot)” value is recorded as “increased” and the “expression of catalase (Western blot)” value is listed as “increased”. The “expression of pRb (Western blot)” value in test [2] (kidney tissue, cell proliferation marker, FIG. 7L, 7M) is “decreased”. Further, in test [2] (kidney tissue, cellular aging marker, FIG. 7K), the “expression of p16 (Western blot)” value was “marked decrease”. Besides, in test [2] (kidney tissue, cellular aging marker, FIG. 7L, 7M), the “expression of p53 (Western blot)” value is on record as “decreased”. Besides, the “Sudan Black B (lipofuscin) staining intensity” value in test [2] (kidney tissue, cellular senescence, FIG. 7G) is reported as “decreased”. In test [2] (setting [4]), the “expression of type 1 collagen (COL1) (Western blot)” value is listed as “decreased” and the “expression of α-SMA (Western blot)” value is “decreased”. In test [2] (kidney tissue, oxidative stress marker, FIG. 7K), the “expression of 4-HNE (Western blot)” value is “marked decrease”. Besides, the “lipid peroxides in tissue” value in test [2] (kidney tissue, FIG. 7H) is “significantly reduced”. For the same compound, the MDA in tissue result in test [2] (kidney tissue, FIG. 7I) is listed as “significantly reduced”. In test [2] (kidney tissue, FIG. 7J), the superoxides in tissue result is “decreased”. Also, the “degree of tissue fibrosis by trichrome staining” value in test [2] (kidney, FIG. 7E, 7F) was “significantly reduced”. In addition, in test [2] (renal tissue specimen, FIG. 7E, 7F), the “damage to the renal tubules” value is reported as “significantly reduced”.
